± gives the expanded uncertainty stated by the source.

The conditions of the data set: 298.15 K; 101 kPa; Liquid.
`CC(C)=O` [acetone]: the mass density (in general, mass per unit of volume) was found to be 785.36 ± 0.81 kg/m3 and the viscosity – broadly, the internal friction of a fluid under shear – was determined as 0.3 ± 0.1 mPa·s.

For `CCOC=O` [ethyl methanoate], the viscosity is 0.4 ± 0.1 mPa·s.

On to `COC(C)=O` [methyl ethanoate], for which the viscosity is 0.4 ± 0.1 mPa·s.

In the case of `COC=O` [methyl methanoate], the mass density was 964.78 ± 0.45 kg/m3 and the viscosity is given as 0.3 ± 0.1 mPa·s.

Values taken from the NIST ThermoML archive (doi:10.1021/je8001128).
